Target: T1, cathepsin K (Homo sapiens, UniProt P43235)
T1 construct: gene CTSK; recombinant human CatK
T1 sequence (P43235 115-329): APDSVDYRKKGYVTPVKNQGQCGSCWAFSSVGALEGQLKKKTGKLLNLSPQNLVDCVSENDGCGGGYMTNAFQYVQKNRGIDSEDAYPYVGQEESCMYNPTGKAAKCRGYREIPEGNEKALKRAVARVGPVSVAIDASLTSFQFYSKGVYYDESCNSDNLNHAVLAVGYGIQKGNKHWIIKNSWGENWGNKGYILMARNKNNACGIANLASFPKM
Assay: gelatin zymography with recombinant human CatK
Type: biochemical

Row | IC50 [nM] | SMILES
1 | 51 ± 20 | CC(C)C[C@H](NC(=O)c1ccc(-c2ccc(-c3ccccc3)cc2)cc1)C(=O)N(C)N(C)C#N [CKI-8]
2 | 29 ± 11 | CC(C)C[C@H](NC(=O)c1cccc(-c2ccc(-c3ccccc3)cc2)c1)C(=O)N(C)N(C)C#N [CKI-13]

From PMC4500499, “Azanitrile Cathepsin K Inhibitors: Effects on Cell Toxicity, Osteoblast-Induced Mineralization and Osteoclast-Mediated Bone Resorption” (PLoS ONE, 2015)
